Laboratory results reported in paper PMC10510381, “Alkyne as a Latent Warhead to Covalently Target SARS-CoV-2 Main Protease” (Journal of Medicinal Chemistry, 2023).

Biological target: C145A mutant of M^pro (Severe acute respiratory syndrome coronavirus 2, UniProt P0DTD1, C3408A)
Format: cell-based, SARS-CoV-2

C#CC[C@H](NC(=O)C(F)(F)F)C(=O)N1C[C@H]2[C@@H]([C@H]1C(=O)N[C@H](C#C)C[C@@H]1CCNC1=O)C2(C)C [Alk-4d, O=C1NCC[C@H]1C[C@@H](C#C)NC([C@H]2N(C([C@@H](NC(C(F)(F)F)=O)CC#C)=O)C[C@H]3[C@@H]2C3(C)C)=O]
labeling of C145A mutant of M^pro in cells: no labeling
